A short description of this series: logP by HPLC on reversed-phase column (EEC Directive 79/831 Annex V.A8). The note with it: for logP: EEC Directive 79/831 Annex V.A8.
[1] abbreviates: HPLC on reversed-phase column (C 18).
[2] abbreviates: HPLC on a reversed-phase column (C 18).

Consider 75 molecules from patent publication US9375004B2 (Bayer Intellectual Property GmbH, priority 2010, dated 2016).

`Cn1nc(C(F)F)c(C(=O)Nc2cccc(OCC(C)(C)C)c2)c1Cl` [compound 183] displayed a logP under setting [1] of 4.19.
Same read-out and setting: under `CC(C)Oc1cccc(-c2ccccc2NC(=O)c2c(C(F)F)nn(C)c2Cl)c1` [compound 112] stands 4.36; under `Cn1nc(C(F)F)c(C(=O)Nc2ccccc2SCC(F)(F)F)c1F` [compound 37], 3.29.
Under setting [1], `CCOc1ccc(NC(=O)c2c(C(F)F)nn(C)c2F)cc1OCC` [compound 167] returned a logP of 2.54.
`CCC(C)Oc1cc(NC(=O)c2c(C(F)F)nn(C)c2Cl)ccc1C` (stereo not drawn) [compound 178] yielded a logP under setting [1] of 4.06.
The same measure, in the same setting: the result for `Cn1nc(C(F)F)c(C(=O)Nc2ccccc2-c2cc(F)cc(F)c2)c1F` [compound 91] reads 3.31; that for `CC(C)=CCc1ccccc1NC(=O)c1c(C(F)F)nn(C)c1F` [compound 6], 3.20; that for `Cn1nc(C(F)F)c(C(=O)Nc2cccc3c2OCCO3)c1Cl` [compound 58], 2.70.
Take `CC(C)Oc1ccc(-c2ccccc2NC(=O)c2c(C(F)F)nn(C)c2F)cc1` [compound 113]: under setting [1], the logP worked out at 4.01.
`Cn1nc(C(F)F)c(C(=O)Nc2ccccc2-c2ccc(Cl)cc2Cl)c1F` [compound 123] registered a logP under setting [1] of 3.89.
`Cn1nc(C(F)F)c(C(=O)Nc2cccc(-c3ccc(Cl)cc3)c2)c1F` [compound 207] registered a logP under setting [1] of 3.83.
The same measure, in the same setting: the result for `Cn1nc(C(F)F)c(C(=O)Nc2cccc(C3CC3)c2)c1F` [compound 191] reads 2.90; that for `Cn1nc(C(F)F)c(C(=O)Nc2cccc(-c3cc(Cl)cc(Cl)c3)c2)c1F` [compound 231], 4.39.
Consider `Cn1nc(C(F)F)c(C(=O)Nc2ccc(-c3ccccc3)cc2)c1Cl` [compound 265], for which the logP under setting [2] was 3.50.
Take `Cc1cc(C)cc(-c2cccc(NC(=O)c3c(C(F)F)nn(C)c3F)c2)c1` [compound 205]: the lipophilicity (logP) under setting [1] worked out at 4.11.
Still for that read-out and setting: the result for `CC(C)c1cccc(-c2cccc(NC(=O)c3c(C(F)F)nn(C)c3Cl)c2)c1` [compound 213] reads 4.61; that for `Cn1nc(C(F)F)c(C(=O)Nc2ccccc2SC(F)(F)C(F)(F)C(F)(F)F)c1F` [compound 42], 4.25.
Still for that read-out and setting: under `CO/N=C(\C)c1ccc(-c2cccc(NC(=O)c3c(C(F)F)nn(C)c3Cl)c2)cc1` [compound 234] stands 4.11; under `CC(C)c1ccccc1NC(=O)c1c(C(F)F)nn(C)c1F` [compound 1], 2.82; under `Cn1nc(C(F)F)c(C(=O)Nc2cccc(-c3ccc(F)cc3)c2)c1F` [compound 203], 3.39.
Still for that read-out and setting: the result for `Cn1nc(C(F)F)c(C(=O)Nc2cccc(OCC(C)(C)C)c2)c1F` [compound 182] reads 3.96.
The molecule `CC(C)O/N=C/c1ccc(-c2cccc(NC(=O)c3c(C(F)F)nn(C)c3Cl)c2)cc1` [compound 246] yielded a logP under setting [2] of 4.66.
Molecule `Cn1nc(C(F)F)c(C(=O)Nc2ccc3c(c2)OCO3)c1Cl` [compound 195] came in with a logP under setting [1] of 2.20.
Take `Cn1nc(C(F)F)c(C(=O)Nc2ccc(C3CCCCC3)cc2)c1F` [compound 262]: the logP under setting [2] is 4.21.
Under setting [1], `Cn1nc(C(F)F)c(C(=O)Nc2ccccc2-c2cccc(Cl)c2Cl)c1F` [compound 121] gave a lipophilicity (logP) of 3.76.
Molecule `Cn1nc(C(F)F)c(C(=O)Nc2cccc(-c3cccc([Si](C)(C)C)c3)c2)c1Cl` [compound 238] displayed a logP under setting [1] of 5.17.
Regarding `Cc1cc(C)cc(-c2ccccc2NC(=O)c2c(C(F)F)nn(C)c2Cl)c1` [compound 82], the logP under setting [1] is listed as 4.51.
On the same count and under the same terms, the result for `Cn1nc(C(F)F)c(C(=O)Nc2ccccc2-c2cccc(OC(F)(F)F)c2)c1Cl` [compound 143] reads 4.11.
With `Cn1nc(C(F)F)c(C(=O)Nc2ccc(Cl)cc2)c1F` [compound 261], the logP under setting [2] is given as 2.70.
Under setting [1], `Cn1nc(C(F)F)c(C(=O)Nc2cccc(Cl)c2SCC(F)F)c1F` [compound 33] yielded a logP of 3.53.
The molecule `CC(C)COc1ccc(-c2cccc(NC(=O)c3c(C(F)F)nn(C)c3F)c2)cc1` [compound 235] had a logP under setting [1] of 4.61.
Turning to `Cn1nc(C(F)F)c(C(=O)Nc2ccc(-c3cc(Cl)cc(Cl)c3)cc2)c1Cl` [compound 267], the logP under setting [2] came to 4.72.
The molecule `CCOc1ccc(NC(=O)c2c(C(F)F)nn(C)c2Cl)cc1OCC` [compound 168] had a logP under setting [1] of 2.70.
The same measure, in the same setting: under `Cn1nc(C(F)F)c(C(=O)Nc2ccccc2-c2ccc(F)c(Cl)c2)c1Cl` [compound 103] stands 3.85.
With `Cn1nc(C(F)F)c(C(=O)Nc2cccc(-c3ccc(OC(F)(F)F)cc3)c2)c1Cl` [compound 244], the logP under setting [2] is reported as 4.34.
As to `Cn1nc(C(F)F)c(C(=O)Nc2cccc3c2CCCC3)c1Cl` [compound 57], the logP under setting [1] was determined as 3.31.
Still for that read-out and setting: under `Cn1nc(C(F)F)c(C(=O)Nc2ccc3c(c2)OC(F)(F)C(F)(F)O3)c1Cl` [compound 200] stands 3.76; under `Cc1ccccc1Oc1ccccc1NC(=O)c1c(C(F)F)nn(C)c1Cl` [compound 161], 4.29.
Same read-out and setting: the result for `CC(C)Oc1cc(NC(=O)c2c(C(F)F)nn(C)c2Cl)c(Cl)cc1Cl` [compound 173] reads 4.68.
The molecule `Cn1nc(C(F)F)c(C(=O)Nc2cccc(Sc3ccccc3)c2)c1F` [compound 257] had a logP under setting [2] of 3.65.
`CC1CCCC(c2ccccc2NC(=O)c2c(C(F)F)nn(C)c2F)C1` (stereo not drawn) [compound 52] registered a logP under setting [1] of 3.23.
Same read-out and setting: under `CO/N=C(\C)c1ccc(-c2ccccc2NC(=O)c2c(C(F)F)nn(C)c2F)cc1` [compound 129] stands 3.78; under `Cc1ccccc1-c1ccccc1NC(=O)c1c(C(F)F)nn(C)c1Cl` [compound 76], 4.14.
Take `Cn1nc(C(F)F)c(C(=O)Nc2ccc(-c3ccccc3)cc2)c1F` [compound 264]: under setting [2], the logP turned out to be 3.33.
Regarding `CCOCCOc1cc(NC(=O)c2c(C(F)F)nn(C)c2Cl)ccc1C` [compound 184], the logP under setting [1] is listed as 3.13.
Still for that read-out and setting: under `Cn1nc(C(F)F)c(C(=O)Nc2ccccc2-c2cc(Cl)cc(Cl)c2)c1F` [compound 127] stands 4.01; under `Cn1nc(C(F)F)c(C(=O)Nc2cccc(-c3cccc(OC(F)(F)F)c3)c2)c1F` [compound 242], 4.11.
`Cn1nc(C(F)F)c(C(=O)Nc2ccc3c(c2)OC(F)(F)O3)c1F` [compound 197]: the logP under setting [1] stood at 2.94.
The same measure, in the same setting: under `CC(C)Oc1cccc(NC(=S)c2c(C(F)F)nn(C)c2Cl)c1` [Example 171] stands 3.41.
Same read-out and setting: the result for `Cn1nc(C(F)F)c(C(=O)Nc2ccccc2SC(F)(F)F)c1F` [compound 36] reads 3.37.
In turn, `Nc1ccc(F)cc1-c1ccc(C(F)(F)F)cc1` [5-fluoro-4′-(trifluoromethyl)biphenyl-2-amine] returned a chromatographic logP (reversed-phase HPLC column (C 18)) of 3.52.
Under setting [2], `Cn1nc(C(F)F)c(C(=O)Nc2cccc(Sc3ccc(C(C)(C)C)cc3)c2)c1F` [compound 258] came in with a logP of 4.98.
Under setting [1], `Cn1nc(C(F)F)c(C(=O)Nc2cccc(-c3cc(F)cc(F)c3)c2)c1Cl` [compound 210] gave a logP of 3.83.
On the same count and under the same terms, the result for `CC(C)COc1ccc(-c2cccc(NC(=O)c3c(C(F)F)nn(C)c3Cl)c2)cc1` [compound 236] reads 4.83.
Same read-out and setting: the result for `CC(C)c1cccc(-c2ccccc2NC(=O)c2c(C(F)F)nn(C)c2Cl)c1` [compound 95] reads 4.76.
With `Cn1nc(C(F)F)c(C(=O)Nc2ccccc2-c2ccc([Si](C)(C)C)cc2)c1F` [compound 134], the logP under setting [1] is given as 4.98.
The same measure, in the same setting: under `Cn1nc(C(F)F)c(C(=O)Nc2cccc3c2OC(F)(F)O3)c1Cl` [compound 63] stands 3.00.
The same measure, in the same setting: the result for `CC(C)c1ccccc1NC(=O)c1c(C(F)F)nn(C)c1Cl` [compound 2] reads 3.02; that for `Cn1nc(C(F)F)c(C(=O)Nc2cccc(OCC(F)(F)F)c2)c1Cl` [compound 187], 3.06.
Still for that read-out and setting: under `Cn1nc(C(F)F)c(C(=O)Nc2cccc(-c3cc(F)cc(F)c3)c2)c1F` [compound 209] stands 3.62.
Turning to `Cn1nc(C(F)F)c(C(=O)Nc2ccccc2OCC(C)(C)C)c1F` [compound 27], under setting [1], the logP was determined as 4.08.
The same measure, in the same setting: under `C/C(=N\OC(C)(C)C)c1ccc(-c2ccccc2NC(=O)c2c(C(F)F)nn(C)c2F)cc1` [compound 156] stands 5.17; under `Cn1nc(C(F)F)c(C(=O)Nc2ccccc2C2CC2)c1F` [compound 45], 2.96.
On to `Cn1nc(C(F)F)c(C(=O)Nc2cccc(-c3ccc(F)c(Cl)c3)c2)c1Cl` [compound 218], for which, under setting [1], the lipophilicity (logP) is given as 4.11.
On the same count and under the same terms, the result for `CC(C)c1ccc(-c2cccc(NC(=O)c3c(C(F)F)nn(C)c3F)c2)cc1` [compound 215] reads 4.46; that for `Cn1nc(C(F)F)c(C(=O)Nc2ccccc2Sc2ccc(Cl)cc2)c1F` [compound 164], 4.34.
The same measure, in the same setting: the result for `Cn1nc(C(F)F)c(C(=O)Nc2cccc(-c3ccc([Si](C)(C)C)cc3)c2)c1Cl` [compound 240] reads 5.25; that for `CO/N=C(\C)c1ccc(-c2cccc(NC(=O)c3c(C(F)F)nn(C)c3F)c2)cc1` [compound 233], 3.89.
On the same count and under the same terms, under `Cn1nc(C(F)F)c(C(=O)Nc2cccc(OCC(F)(F)F)c2)c1F` [compound 186] stands 2.88.
`Cn1nc(C(F)F)c(C(=O)Nc2cccc3c2CCCC3)c1F` [compound 56] registered a logP under setting [1] of 3.08.
`Cn1nc(C(F)F)c(C(=O)Nc2cccc(-c3ccc(C(C)(C)C)cc3)c2)c1Cl` [compound 220] displayed a logP under setting [1] of 4.93.
In the case of `Cn1nc(C(F)F)c(C(=O)Nc2ccc(C3CCCCC3)cc2)c1Cl` [compound 263], under setting [2], the logP was 4.44.
Under setting [1], `Cn1nc(C(F)F)c(C(=O)Nc2cccc(-c3ccc(C(C)(C)C)cc3)c2)c1F` [compound 219] had a logP of 4.73.
Same read-out and setting: the result for `Cn1nc(C(F)F)c(C(=O)Nc2ccc3c(c2)OCO3)c1F` [compound 194] reads 2.05.
Same read-out and setting: under `Cn1nc(C(F)F)c(C(=O)Nc2cc(F)ccc2SCC(F)F)c1F` [compound 34] stands 3.33.
